In patent publication US8759519B2, “Mono-hydrochloric salts of an inhibitor of histone deacetylase” (Janssen Pharmaceutica NV, priority 2007, dated 2014):
Counter-ions that a name gives are not always drawn.

How the values were obtained:
Assay type in all cases: physicochemical
[1] = Chemical stability after storage in open conditions (HPLC, visual inspection); conditions: for HPLC Sum of impurities / Appearance: hydrochloride
Method: Form I was stored in different open conditions for periods of 1, 4 and 8 weeks.
These conditions are 40° C./75% RH, 50° C., RT/<5% RH, RT/56% RH, RT/75% RH and 0.3 da ICH light.
The compounds were analyzed after storage by HPLC and by visual inspection.
Form II was stored in different open conditions for periods of 1, 4 and 8 weeks. These conditions were 40° C./75% RH, 50° C., RT/<5% RH, RT/56% RH, RT/75% RH and 0.3 da ICH light.

[2] = Crystallographic stability after storage in open conditions (TGA, DSC, XRPD, IR); parameters: key to XRD / IR: ~Ref: identical with reference; Cryst.: crystalline; conditions: for IR / XRD: Table G
Method: The stability of the crystal structure of Form I was studied after storage of the compound in open conditions for a period of six weeks at room temperature (RT) under <5%, 56% and 75% relative humidity (RH), 50° C. and 40° C./75% RH.
The samples are analyzed with thermogravimetry (TGA), differential scanning calorimetry (DSC), X-ray powder diffraction (XRPD) and infrared spectroscopy (IR).
The stability of the crystal structure of Form II was studied after storage of the compound in open conditions for a period of six weeks at room temperature (RT) under <5%, 56% and 75% relative humidity (RH), 50° C. and 40° C./75% RH.
The samples were analyzed with thermogravimetry (TGA), differential scanning calorimetry (DSC), X-ray powder diffraction (XRPD) and infrared spectroscopy (IR).

[3] = Adsorption/desorption of water (dynamic vapor sorption)
Method: The ADS/DES data were obtained using a SMS dynamic vapor sorption model DVS-1 and the weight change was recorded with tespect to the atmospheric humidity at 25° C. The weight of the samples was about 17 mg of Form I and 24 mg of Form II. The samples were dried for 60 min under dry nitrogen. The equilibrium was lower or equal to 0.01%/min. for minimal 15 min and maximal 60 min. The data interval was 0.05% or 2.0 min.
Relative Humidity (%) measurement points were:
The adsorption and desorption of water at 25° C. at different conditions of relative humidity was investigated on 17 mg Form I.
The weight change as a function of relative humidity was registered.
The adsorption and desorption of water at 25° C. at different conditions of relative humidity was investigated on about 24 mg Form II

[4] = 0 days (reference), hydrochloride
[5] = extra endothermic signal, six weeks open, 40° C./75% RH
[6] = extra endothermic signal, six weeks open, 50° C.
[7] = extra endothermic signal, six weeks open, RT/56% RH
[8] = extra endothermic signal, six weeks open, RT/75% RH
[9] = extra endothermic signal, six weeks open, RT/<5% RH
[10] = six weeks open, 40° C./75% RH, hydrochloride
[11] = six weeks open, 50° C., hydrochloride
[12] = six weeks open, RT/<5% RH, hydrochloride

Cn1cc(CNCC2CCN(c3ncc(C(=O)NO)cn3)CC2)c2ccccc21 [Form II, N-hydroxy-2-[4-[[[(1-methyl-1H-indol-3-yl)methyl]amino]methyl]-1-piperidinyl]-5-pyrimidinecarboxamide hydrochloride]
HPLC Sum of impurities ([1]; 0.3 da ICH light (1 week)): 7.42% | HPLC Sum of impurities ([1]; 40° C./75% RH, 1 week): 4.96% | Appearance ([1]; 40° C./75% RH, 4 weeks): pink | HPLC Sum of impurities ([1]; 40° C./75% RH, 4 weeks): 4.99% | Appearance ([1]; 40° C./75% RH, 8 weeks): pink | HPLC Sum of impurities ([1]; 40° C./75% RH, 8 weeks): 4.9% | Appearance ([1]; 50° C., 1 week): white | HPLC Sum of impurities ([1]; 50° C., 1 week): 4.96% | Appearance ([1]; 50° C., 4 weeks): white | HPLC Sum of impurities ([1]; 50° C., 4 weeks): 5% | HPLC Sum of impurities ([1]; 50° C., 8 weeks): 4.9% | HPLC Sum of impurities ([1]; RT/56% RH, 4 weeks): 5.05% | HPLC Sum of impurities ([1]; RT/56% RH, 8 weeks): 4.94% | HPLC Sum of impurities ([1]; RT/75% RH, 4 weeks): 5.03% | HPLC Sum of impurities ([1]; RT/75% RH, 8 weeks): 4.97% | Appearance ([1]; RT/<5% RH, 4 weeks): white | HPLC Sum of impurities ([1]; RT/<5% RH, 4 weeks): 5.1% | Appearance ([1]; RT/<5% RH, 8 weeks): white | HPLC Sum of impurities ([1]; RT/<5% RH, 8 weeks): 4.98% | Appearance ([1]; Reference (1 week)): white | HPLC Sum of impurities ([1]; Reference (1 week)): 5.04% | discoloration ([1]; after storage in 0.3 da ICH light): white to or orange-brown | discoloration ([1]; after storage in humid conditions RT/56% RH, RT/75% RH and 40° C./75% RH and elevated temperature 50° C.): white to pink | sensitivity towards light (sum of impurities) ([1]; storage in 0.3 da ICH light conditions): showed a sensitivity towards light | DSC Max (° C.) ([2]; 0 days (reference)): ±198 °C | TGA <170° C. ([2]; 0 days (reference)): 0.4% | App (appearance) [2, 4]: white | TGA <100° C. [2, 4]: 3.3% | IR ([2]; six weeks open, 40° C./75% RH): ≠Ref | XRD ([2]; six weeks open, 40° C./75% RH): ≠Ref | IR ([2]; six weeks open, 50° C.): ~Ref | XRD ([2]; six weeks open, 50° C.): ~Ref | IR ([2]; six weeks open, RT/56% RH): ≠Ref | XRD ([2]; six weeks open, RT/56% RH): ≠Ref | IR ([2]; six weeks open, RT/75% RH): ≠Ref | XRD ([2]; six weeks open, RT/75% RH): ≠Ref | IR ([2]; six weeks open, RT/<5% RH): ~Ref | XRD ([2]; six weeks open, RT/<5% RH): ~Ref | DSC Extra (° C.) ([2]; extra endothermic signal (solvent evaporation), 0 days (reference)): 71.5 °C | DSC Extra, heat of the signal ([2]; extra endothermic signal, 0 days (reference)): (78 J/g) | DSC Extra (° C.) [2, 5]: 83.9 °C | DSC Extra, heat of the signal [2, 5]: (151 J/g) | DSC Extra (° C.) [2, 6]: 74.6 °C | DSC Extra, heat of the signal [2, 6]: (66 J/g) | DSC Extra (° C.) [2, 7]: 87.1 °C | DSC Extra, heat of the signal [2, 7]: (144 J/g) | DSC Extra (° C.) [2, 8]: 85.2 °C | DSC Extra, heat of the signal [2, 8]: (153 J/g) | DSC Extra (° C.) [2, 9]: 75.1 °C | DSC Extra, heat of the signal [2, 9]: (68 J/g) | crystallographic stability (conclusion) ([2]; six weeks open storage under the different conditions, hydrochloride): crystallographically not stable | DSC Max (° C.) ([2]; six weeks open, 40° C./75% RH): ±198 °C | TGA <170° C. ([2]; six weeks open, 40° C./75% RH): 0.2% | App (appearance) [2, 10]: pink | TGA <100° C. [2, 10]: 6% | DSC Max (° C.) ([2]; six weeks open, 50° C.): ±198 °C | TGA <170° C. ([2]; six weeks open, 50° C.): 0.2% | App (appearance) [2, 11]: white | TGA <100° C. [2, 11]: 2.1% | DSC Max (° C.) ([2]; six weeks open, RT/56% RH): ±198 °C | TGA <170° C. ([2]; six weeks open, RT/56% RH): 0.3% | TGA <100° C. ([2]; six weeks open, RT/56% RH, hydrochloride): 5.2% | DSC Max (° C.) ([2]; six weeks open, RT/75% RH): ±198 °C | TGA <170° C. ([2]; six weeks open, RT/75% RH): 0.3% | TGA <100° C. ([2]; six weeks open, RT/75% RH, hydrochloride): 4.9% | DSC Max (° C.) ([2]; six weeks open, RT/<5% RH): ±198 °C | TGA <170° C. ([2]; six weeks open, RT/<5% RH): 0.4% | App (appearance) [2, 12]: white | TGA <100° C. [2, 12]: 1.9% | drying during the desorption cycle ([3]; 25° C.): dries completely | hygroscopic behavior ([3]; 25° C., adsorption/desorption test, hydrochloride): hygroscopic | water adsorbed at high relative humidity ([3]; 25° C., high relative humidity, hydrochloride): up to 9.6% | crystallinity during the adsorption/desorption test ([3]; 25° C., hydrochloride): remains crystalline | weight loss during the initial drying step ([3]; dried under dry nitrogen): 1.67%
